In patent US10588317B2, “Isoxazoline-substituted benzamides and analogues as insecticides” (priority 2015, dated 2020):

Legend:
Type in all cases: in vivo
Diabrotica balteata = Diabrotica balteata (corn root worm), sprayed maize sprouts; conditions: 96 h, application rate 200 ppm, L2 larvae, 4 days after infestation, read-out: effect in at least one of the two categories (mortality or growth inhibition)
Protocol: Maize sprouts placed onto an agar layer in 24-well microtiter plates were treated with aqueous test solutions prepared from 10'000 ppm DMSO stock solutions by spraying. After drying, the plates were infested with L2 larvae (6 to 10 per well). The samples were assessed for mortality and growth inhibition in comparison to untreated samples 4 days after infestation.
(§1) The following compounds gave an effect of at least 80% in at least one of the two categories (mortality or growth inhibition) at an application rate of 200 ppm: […]

Euschistus heros = Euschistus heros (neotropical brown stink bug), sprayed soybean leaves; conditions: 120 h, application rate 200 ppm, N2 nymphs, 5 days after infestation, read-out: effect in at least one of the two categories (mortality or growth inhibition)
Protocol: Soybean leaves on agar in 24-well microtiter plates were sprayed with aqueous test solutions prepared from 10'000 ppm DMSO stock solutions. After drying the leaves were infested with N2 nymphs. The samples were assessed for mortality and growth inhibition in comparison to untreated samples 5 days after infestation.
as §1

Plutella xylostella = Plutella xylostella (diamond back moth), artificial diet; conditions: 120 h, application rate 200 ppm, L2 larvae, 5 days after infestation, read-out: effect in at least one of the two categories (mortality or growth inhibition)
Protocol: 24-well microtiter plates with artificial diet were treated with aqueous test solutions prepared from 10'000 ppm DMSO stock solutions by pipetting. After drying, the plates were infested with L2 larvae (10 to 15 per well). The samples were assessed for mortality and growth inhibition in comparison to untreated samples 5 days after infestation.
as §1

Spodoptera littoralis = Spodoptera littoralis (Egyptian cotton leaf worm), sprayed cotton leaf discs; conditions: foliar, 72 h, application rate 200 ppm, L1 larvae, 3 days after infestation, read-out: control (mortality, anti-feeding effect, growth inhibition)
Protocol: Cotton leaf discs were placed onto agar in 24-well microtiter plates and sprayed with aqueous test solutions prepared from 10'000 ppm DMSO stock solutions. After drying the leaf discs were infested with five L1 larvae. The samples were assessed for mortality, anti-feeding effect, and growth inhibition in comparison to untreated samples 3 days after infestation. Control of Spodoptera littoralis by a test sample is given when at least one of the categories mortality, anti-feedant effect, and growth inhibition is higher than the untreated sample.

Tetranychus urticae = Tetranychus urticae (two-spotted spider mite): feeding/contact activity; conditions: 192 h, application rate 200 ppm, mixed population (mobile stages), 8 days after infestation, read-out: mortality
Protocol: Bean leaf discs on agar in 24-well microtiter plates were sprayed with aqueous test solutions prepared from 10'000 ppm DMSO stock solutions. After drying the leaf discs were infested with a mite population of mixed ages. The samples were assessed for mortality on mixed population (mobile stages) 8 days after infestation.

Thrips tabaci = Thrips tabaci (onion thrips): feeding/contact activity; conditions: 144 h, application rate 200 ppm, Thrips population of mixed ages, 6 days after infestation, read-out: mortality
Protocol: Sunflower leaf discs were placed on agar in 24-well microtiter plates and sprayed with aqueous test solutions prepared from 10'000 ppm DMSO stock solutions. After drying the leaf discs were infested with a Thrips population of mixed ages. The samples were assessed for mortality 6 days after infestation.

Cc1cc(C2=NO[C@](c3cc(Cl)c(F)c(Cl)c3)(C(F)(F)F)C2)ccc1C(=O)N[C@H]1CON(SC(Cl)(Cl)Cl)C1 [Compound A227, 4-[(5R)-5-(3,5-dichloro-4-fluorophenyl)-5-(trifluoromethyl)-4H-1,2-oxazol-3-yl]-2-methyl-N-[(4R)-2-(trichloromethylsulfanyl)-1,2-oxazolidin-4-yl]benzamide]
≥ 80%: percent effect (mortality or growth inhibition) at 200 ppm (Diabrotica balteata) | percent effect (mortality or growth inhibition) at 200 ppm (Euschistus heros) | percent effect (mortality or growth inhibition) at 200 ppm (Plutella xylostella) | mortality at 200 ppm (Spodoptera littoralis) | mortality at 200 ppm (Tetranychus urticae) | mortality at 200 ppm (Thrips tabaci)

Cc1cc(C2=NO[C@@](c3cc(Cl)cc(Cl)c3)(C(F)(F)F)C2)ccc1C(=O)N[C@@H]1CON(S(=O)(=O)CC(F)(F)F)C1 [Compound A195, 4-[(5S)-5-(3,5-dichlorophenyl)-5-(trifluoromethyl)-4H-1,2-oxazol-3-yl]-2-methyl-N-[(4S)-2-(2,2,2-trifluoroethylsulfonyl)-1,2-oxazolidin-4-yl]benzamide]
≥ 80%: percent effect (mortality or growth inhibition) at 200 ppm (Diabrotica balteata) | percent effect (mortality or growth inhibition) at 200 ppm (Euschistus heros) | percent effect (mortality or growth inhibition) at 200 ppm (Plutella xylostella) | mortality at 200 ppm (Spodoptera littoralis) | mortality at 200 ppm (Tetranychus urticae) | mortality at 200 ppm (Thrips tabaci)

Cc1cc(C2=NO[C@](c3cc(Cl)cc(Cl)c3)(C(F)(F)F)C2)ccc1C(=O)N[C@H]1CON(S(=O)(=O)NC2(C#N)CC2)C1 [Compound A167]
≥ 80%: percent effect (mortality or growth inhibition) at 200 ppm (Diabrotica balteata) | percent effect (mortality or growth inhibition) at 200 ppm (Euschistus heros) | percent effect (mortality or growth inhibition) at 200 ppm (Plutella xylostella) | mortality at 200 ppm (Spodoptera littoralis) | mortality at 200 ppm (Tetranychus urticae) | mortality at 200 ppm (Thrips tabaci)

Cc1cc(C2=NO[C@@](c3cc(Cl)cc(Cl)c3)(C(F)(F)F)C2)ccc1C(=O)N[C@@H]1CON(S(=O)(=O)NCC(F)(F)F)C1 [Compound A194]
≥ 80%: percent effect (mortality or growth inhibition) at 200 ppm (Diabrotica balteata) | percent effect (mortality or growth inhibition) at 200 ppm (Euschistus heros) | percent effect (mortality or growth inhibition) at 200 ppm (Plutella xylostella) | mortality at 200 ppm (Spodoptera littoralis) | mortality at 200 ppm (Tetranychus urticae) | mortality at 200 ppm (Thrips tabaci)

CS(=O)(=O)N1CC(NC(=O)c2ccc(C3=NOC(c4cc(Cl)cc(Cl)c4)(C(F)(F)F)C3)cc2C(F)(F)F)CO1 (stereo not drawn) [Compound A58]
≥ 80%: percent effect (mortality or growth inhibition) at 200 ppm (Diabrotica balteata) | percent effect (mortality or growth inhibition) at 200 ppm (Euschistus heros) | percent effect (mortality or growth inhibition) at 200 ppm (Plutella xylostella) | mortality at 200 ppm (Spodoptera littoralis) | mortality at 200 ppm (Tetranychus urticae) | mortality at 200 ppm (Thrips tabaci)

CS(=O)(=O)N1CC(NC(=O)c2ccc(C3=NOC(c4cc(Cl)cc(Cl)c4)(C(F)(F)F)C3)c3ccccc23)CO1 (stereo not drawn) [Compound A46]
≥ 80%: percent effect (mortality or growth inhibition) at 200 ppm (Diabrotica balteata) | percent effect (mortality or growth inhibition) at 200 ppm (Euschistus heros) | percent effect (mortality or growth inhibition) at 200 ppm (Plutella xylostella) | mortality at 200 ppm (Spodoptera littoralis) | mortality at 200 ppm (Tetranychus urticae) | mortality at 200 ppm (Thrips tabaci)

Cc1cc(C2=NO[C@](c3cc(Cl)c(F)c(Cl)c3)(C(F)(F)F)C2)ccc1C(=O)N[C@H]1CON(S(=O)(=O)CCC(F)(F)F)C1 [Compound A199, 4-[(5R)-5-(3,5-dichloro-4-fluorophenyl)-5-(trifluoromethyl)-4H-1,2-oxazol-3-yl]-2-methyl-N-[(4R)-2-(3,3,3-trifluoropropylsulfonyl)-1,2-oxazolidin-4-yl]benzamide]
≥ 80%: percent effect (mortality or growth inhibition) at 200 ppm (Diabrotica balteata) | percent effect (mortality or growth inhibition) at 200 ppm (Euschistus heros) | percent effect (mortality or growth inhibition) at 200 ppm (Plutella xylostella) | mortality at 200 ppm (Spodoptera littoralis) | mortality at 200 ppm (Tetranychus urticae) | mortality at 200 ppm (Thrips tabaci)

Cc1cc(C2=NO[C@](c3cc(Cl)c(F)c(Cl)c3)(C(F)(F)F)C2)ccc1C(=O)N[C@H]1CON(S(=O)(=O)CC(F)F)C1 [Compound A225, 4-[(5R)-5-(3,5-dichloro-4-fluorophenyl)-5-(trifluoromethyl)-4H-1,2-oxazol-3-yl]-N-[(4R)-2-(2,2-difluoroethylsulfonyl)-1,2-oxazolidin-4-yl]-2-methylbenzamide]
≥ 80%: percent effect (mortality or growth inhibition) at 200 ppm (Diabrotica balteata) | percent effect (mortality or growth inhibition) at 200 ppm (Euschistus heros) | percent effect (mortality or growth inhibition) at 200 ppm (Plutella xylostella) | mortality at 200 ppm (Spodoptera littoralis) | mortality at 200 ppm (Tetranychus urticae) | mortality at 200 ppm (Thrips tabaci)

Cc1cc(C2=NO[C@@](c3cc(Cl)c(F)c(Cl)c3)(C(F)(F)F)C2)ccc1C(=O)NC1CON(S(=O)(=O)c2cccs2)C1 (stereo partly drawn) [Compound A9]
≥ 80%: percent effect (mortality or growth inhibition) at 200 ppm (Diabrotica balteata) | percent effect (mortality or growth inhibition) at 200 ppm (Euschistus heros) | percent effect (mortality or growth inhibition) at 200 ppm (Plutella xylostella) | mortality at 200 ppm (Spodoptera littoralis) | mortality at 200 ppm (Tetranychus urticae) | mortality at 200 ppm (Thrips tabaci)

COC(=O)CS(=O)(=O)N1C[C@H](NC(=O)c2ccc(C3=NO[C@@](c4cc(Cl)c(F)c(Cl)c4)(C(F)(F)F)C3)cc2C)CO1 [Compound A190, methyl 2-[[(4S)-4-[[4-[(5S)-5-(3,5-dichloro-4-fluorophenyl)-5-(trifluoromethyl)-4H-1,2-oxazol-3-yl]-2-methylbenzoyl]amino]-1,2-oxazolidin-2-yl]sulfonyl]acetate]
≥ 80%: percent effect (mortality or growth inhibition) at 200 ppm (Diabrotica balteata) | percent effect (mortality or growth inhibition) at 200 ppm (Euschistus heros) | percent effect (mortality or growth inhibition) at 200 ppm (Plutella xylostella) | mortality at 200 ppm (Spodoptera littoralis) | mortality at 200 ppm (Tetranychus urticae) | mortality at 200 ppm (Thrips tabaci)

Cc1cc(C2=NO[C@@](c3cc(Cl)c(F)c(Cl)c3)(C(F)(F)F)C2)ccc1C(=O)N[C@@H]1CON(S(=O)(=O)CC(=O)NO)C1 [Compound A203, 4-[(5S)-5-(3,5-dichloro-4-fluorophenyl)-5-(trifluoromethyl)-4H-1,2-oxazol-3-yl]-N-[(4S)-2-[2-(hydroxyamino)-2-oxoethyl]sulfonyl-1,2-oxazolidin-4-yl]-2-methylbenzamide]
≥ 80%: percent effect (mortality or growth inhibition) at 200 ppm (Diabrotica balteata) | percent effect (mortality or growth inhibition) at 200 ppm (Euschistus heros) | percent effect (mortality or growth inhibition) at 200 ppm (Plutella xylostella) | mortality at 200 ppm (Spodoptera littoralis) | mortality at 200 ppm (Tetranychus urticae) | mortality at 200 ppm (Thrips tabaci)

Cc1cc(C2=NO[C@@](c3cc(Cl)c(F)c(Cl)c3)(C(F)(F)F)C2)ccc1C(=O)NC1CON(S(=O)(=O)NS(C)(=O)=O)C1 (stereo partly drawn) [Compound A102, 4-[(5S)-5-(3,5-dichloro-4-fluoro-phenyl)-5-(trifluoromethyl)-4H-isoxazol-3-yl]-2-methyl-N-[2-(methylsulfonylsulfamoyl)isoxazolidin-4-yl]benzamide]
≥ 80%: percent effect (mortality or growth inhibition) at 200 ppm (Diabrotica balteata) | percent effect (mortality or growth inhibition) at 200 ppm (Euschistus heros) | percent effect (mortality or growth inhibition) at 200 ppm (Plutella xylostella) | mortality at 200 ppm (Spodoptera littoralis) | mortality at 200 ppm (Tetranychus urticae) | mortality at 200 ppm (Thrips tabaci)

CCOC(=O)CN(C)S(=O)(=O)N1CC(NC(=O)c2ccc(C3=NO[C@@](c4cc(Cl)c(Cl)c(Cl)c4)(C(F)(F)F)C3)cc2C)CO1 (stereo partly drawn) [Compound A89, ethyl 2-[methyl-[4-[[2-methyl-4-[(5S)-5-(3,4,5-trichlorophenyl)-5-(trifluoromethyl)-4H-isoxazol-3-yl]benzoyl]amino]isoxazolidin-2-yl]sulfonyl-amino]acetate]
≥ 80%: percent effect (mortality or growth inhibition) at 200 ppm (Diabrotica balteata) | percent effect (mortality or growth inhibition) at 200 ppm (Euschistus heros) | percent effect (mortality or growth inhibition) at 200 ppm (Plutella xylostella) | mortality at 200 ppm (Spodoptera littoralis) | mortality at 200 ppm (Tetranychus urticae) | mortality at 200 ppm (Thrips tabaci)

Cc1cc(C2=NO[C@](c3cc(Cl)c(F)c(Cl)c3)(C(F)(F)F)C2)ccc1C(=O)N[C@@H]1CON(SC(F)(F)F)C1 [Compound A224, 4-[(5R)-5-(3,5-dichloro-4-fluorophenyl)-5-(trifluoromethyl)-4H-1,2-oxazol-3-yl]-2-methyl-N-[(4S)-2-(trifluoromethylsulfanyl)-1,2-oxazolidin-4-yl]benzamide]
≥ 80%: percent effect (mortality or growth inhibition) at 200 ppm (Diabrotica balteata) | percent effect (mortality or growth inhibition) at 200 ppm (Euschistus heros) | percent effect (mortality or growth inhibition) at 200 ppm (Plutella xylostella) | mortality at 200 ppm (Spodoptera littoralis) | mortality at 200 ppm (Tetranychus urticae) | mortality at 200 ppm (Thrips tabaci)

Cc1cc(C2=NOC(c3cccc(C(F)(F)F)c3)(C(F)(F)F)C2)ccc1C(=O)NC1CON(S(C)(=O)=O)C1 (stereo not drawn) [Compound A60]
≥ 80%: percent effect (mortality or growth inhibition) at 200 ppm (Diabrotica balteata) | percent effect (mortality or growth inhibition) at 200 ppm (Euschistus heros) | percent effect (mortality or growth inhibition) at 200 ppm (Plutella xylostella) | mortality at 200 ppm (Spodoptera littoralis) | mortality at 200 ppm (Tetranychus urticae) | mortality at 200 ppm (Thrips tabaci)
